Experimental data reported in patent US5585095A, “Method to enhance thrombomodulin APC generation using cationic proteins” (Regents of the University of Minnesota, priority 1993, dated 1996).
One block for each substance: values may come before it.

How the values were obtained:
full-length rabbit TM = biological target: T1, full-length rabbit TM (Oryctolagus cuniculus, UniProt Q8HZ48); experiment: APC generation by soluble full-length rabbit TM with thrombin and protein C (chromogenic S-2366); assay type: biochemical; conditions: 2 nM TM, 500 nM protein C, 1 mM Ca2+, 2 nM THR, 10 min, 37° C., over baseline
T1 construct: full-length rabbit TM purified from lungs; from tissue; host or cells: rabbit lung (purified after N. L. Esmon et al. 1982)
T1 sequence (Q8HZ48 19-580): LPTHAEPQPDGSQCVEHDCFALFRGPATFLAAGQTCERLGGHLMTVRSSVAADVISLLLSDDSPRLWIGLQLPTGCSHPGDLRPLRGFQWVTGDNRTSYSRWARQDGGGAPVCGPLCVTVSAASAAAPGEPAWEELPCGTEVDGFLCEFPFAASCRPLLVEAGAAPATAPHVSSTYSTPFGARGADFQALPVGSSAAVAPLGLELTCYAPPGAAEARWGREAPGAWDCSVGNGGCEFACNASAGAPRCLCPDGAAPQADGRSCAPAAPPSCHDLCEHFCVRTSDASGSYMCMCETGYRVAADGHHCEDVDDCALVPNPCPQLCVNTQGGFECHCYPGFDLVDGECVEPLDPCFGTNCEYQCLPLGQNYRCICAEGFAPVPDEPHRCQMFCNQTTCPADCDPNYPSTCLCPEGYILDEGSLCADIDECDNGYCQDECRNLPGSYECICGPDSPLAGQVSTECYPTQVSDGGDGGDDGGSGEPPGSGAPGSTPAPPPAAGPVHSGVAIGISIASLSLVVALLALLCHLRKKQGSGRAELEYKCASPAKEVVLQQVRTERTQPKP
Experimental: For each type of cationic protein or modification thereof to be tested, 2 nM TM (full-length rabbit TM) and 500 nM protein C are incubated together in the presence of 1 mM (i.e., physiologic) Ca^2+ with either no cationic protein (for a baseline determination) or […] of the cationic protein. The generation of APC is initiated by the addition of 2 nM THR in 50 mM of the buffer Tris, 100 mM NaCl, pH 7.4 at 37° C. The reaction is allowed to proceed for 10 minutes, then quenched by the addition of AT III (antithrombin obtained from Enzyme Research Laboratories, Inc., South Bend, Ind.) and EDTA. […] A cationic protein that can be used in the methods and compositions of the present invention include those that show at least a two-fold increase in APC production, relative to a baseline of APC generated without the cationic protein.
Dose-response studies were then performed with increasing amounts of PF4 to assay its effect upon the ability of three TM preps to generate APC from protein C. […] See, C.
For each type of TM, 2 nM TM and 500 nM protein C were incubated together in the presence of 1 mM (i.e., physiologic) Ca^2+ with or without PF4, and the generation of APC initiated by the addition of 2 nM THR in 50 mM Tris, 100 mM NaCl, pH 7.4 at 37° C. The reaction was allowed to proceed for 10 minutes, then quenched by the addition of AT III (obtained from Enzyme Research Laboratories, Inc., South Bend, Ind.) and EDTA. […] Negative controls of plastic wells treated in a parallel fashion except that TM was omitted. Values obtained from these controls were then subtracted from the rates measured for wells containing monolayers.

GAG- TM = experiment: APC generation by recombinant GAG- TM with thrombin and protein C (chromogenic S-2366); assay type: biochemical, human
Experimental: Human PF4 was purified from outdated platelets by THR stimulation, NH4 SO4 precipitation, heparin affinity chromatography, and Scphadex G-100 chromatography using a technique described in T. F. Deuel et al., Proc. Natl. Acad. Sci. USA, 74, 2256-2258 (1977), which is incorporated herein by reference. Dose-response studies were then performed with increasing amounts of PF4 to assay its effect upon the ability of three TM preps to generate APC from protein C. The three TM preps employed were: a) full-length rabbit TM purified from lungs (see, N. L. Esmon et al., J. Biol. Chem., 257, 859-864 (1982)); and b) two differentially glycated versions of a recombinantly produced polypeptide fragment of human TM encompassing the entire extracellular domain ([amino acids 1-497], which includes the serine 492 glycosylation site) expressed in Chinese Hamster Ovary cells, provided by Berlex Biosciences (Richmond, Calif.). See, C. B. Glaser et al., J. Clin. Invest., 90, 2565-2573 (1992). […]
The reaction was allowed to proceed for 10 minutes, then quenched by the addition of AT III (obtained from Enzyme Research Laboratories, Inc., South Bend, Ind.) and EDTA. APC was quantified spectrophotometrically with the chromogenic substrate S-2366 (obtained from Kabi Vitrum, Franklin, Ohio). […] Values obtained from these controls were then subtracted from the rates measured for wells containing monolayers. […]

GAG+ TM [1] = biological target: T2, GAG+ TM (Homo sapiens, UniProt P07204); experiment: APC generation by recombinant GAG+ TM with thrombin and protein C (chromogenic S-2366); assay type: biochemical; conditions: for acceleratory effect upon APC generation by thrombomodulin (GAG+ TM): conditions of Example 1, GAG+ TM, FIG. 4
T2 construct: encompassing the entire extracellular domain ([amino acids 1-497], which includes the serine 492 glycosylation site); host or cells: Chinese Hamster Ovary cells
T2 sequence (P07204 19-515): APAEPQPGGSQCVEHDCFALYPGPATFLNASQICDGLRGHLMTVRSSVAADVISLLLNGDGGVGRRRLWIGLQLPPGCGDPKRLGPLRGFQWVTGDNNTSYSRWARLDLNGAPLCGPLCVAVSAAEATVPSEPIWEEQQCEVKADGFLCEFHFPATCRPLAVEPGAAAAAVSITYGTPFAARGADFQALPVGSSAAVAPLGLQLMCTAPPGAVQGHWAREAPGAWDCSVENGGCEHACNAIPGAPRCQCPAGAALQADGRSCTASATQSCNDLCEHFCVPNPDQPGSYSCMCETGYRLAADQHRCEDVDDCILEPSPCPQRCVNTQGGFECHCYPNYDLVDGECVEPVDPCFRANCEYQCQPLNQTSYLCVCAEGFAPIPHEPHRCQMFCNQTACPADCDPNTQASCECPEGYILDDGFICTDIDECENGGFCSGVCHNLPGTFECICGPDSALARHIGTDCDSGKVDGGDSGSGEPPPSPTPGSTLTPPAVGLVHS
Experimental: Human PF4 was purified from outdated platelets by THR stimulation, NH4 SO4 precipitation, heparin affinity chromatography, and Scphadex G-100 chromatography using a technique described in T. F. Deuel et al., Proc. Natl. Acad. Sci. USA, 74, 2256-2258 (1977), which is incorporated herein by reference. Dose-response studies were then performed with increasing amounts of PF4 to assay its effect upon the ability of three TM preps to generate APC from protein C. The three TM preps employed were: a) full-length rabbit TM purified from lungs (see, N. L. Esmon et al., J. Biol. Chem., 257, 859-864 (1982)); and b) two differentially glycated versions of a recombinantly produced polypeptide fragment of human TM encompassing the entire extracellular domain ([amino acids 1-497], which includes the serine 492 glycosylation site) expressed in Chinese Hamster Ovary cells, provided by Berlex Biosciences (Richmond, Calif.). See, C. B. Glaser et al., J. Clin. Invest., 90, 2565-2573 (1992). These polypeptides were produced in two chromatographically separable forms: the first has an apparent molecular weight of 116 kD and contains a chondroitinase ABC-cleavable GAG moiety (henceforth referred to GAG+ TM); the second is an unglycated version of the same polypeptide with apparent molecular weight of 95 kD, henceforth referred to as GAG- TM.
(§1) For each type of TM, 2 nM TM and 500 nM protein C were incubated together in the presence of 1 mM (i.e., physiologic) Ca^2+ with or without PF4, and the generation of APC initiated by the addition of 2 nM THR in 50 mM Tris, 100 mM NaCl, pH 7.4 at 37° C. The reaction was allowed to proceed for 10 minutes, then quenched by the addition of AT III (obtained from Enzyme Research Laboratories, Inc., South Bend, Ind.) and EDTA. APC was quantified spectrophotometrically with the chromogenic substrate S-2366 (obtained from Kabi Vitrum, Franklin, Ohio). The spectrophotometric analysis involved the conversion of the chromogenic substrate at […] in a 37° C. spectrophotometer cell based on the initial rate of optical density change. Negative controls of plastic wells treated in a parallel fashion except that TM was omitted. Values obtained from these controls were then subtracted from the rates measured for wells containing monolayers.
The conditions used were identical to those listed in Example 1 except GAG+ TM obtained from Berlex Biosciences was used for all experiments.

THR = experiment: TM-independent activation of protein C by THR (control); assay type: biochemical; conditions: controls, not shown
Experimental: as §1
(§2) PF4 accelerates APC generation by full-length rabbit TM and GAG- TM 4-fold, and that of GAG+ TM 25-fold. GAG+ TM was also accelerated 10-fold by PF4 in the presence of 15% defibrinated plasma. […] The increase in APC was not an artifact of PF4 influencing the catalytic activity of APC towards chromogenic substrate.

TM [2] = experiment: APC generation in the absence of added THR (control); assay type: biochemical; conditions: PF4 alone or PF4 together with TM
Experimental: as §1, with “The” for “For each type of TM, 2 nM TM and 500 nM protein C were incubated together in the presence of 1 mM (i.e., physiologic) Ca^2+ with or without PF4, and the generation of APC initiated by the addition of 2 nM THR in 50 mM Tris, 100 mM NaCl, pH 7.4 at 37° C. The”
as §2

[3] = system: cell-surface TM on porcine aortic endothelial cell (PAEC) monolayers; experiment: APC generation by porcine aortic endothelial cell monolayers; assay type: cell-based
Experimental: In these experiments, 1 cm^2 monolayers of endothelial cells were overlaid with PBS buffer containing 500 nM PC and 1 mM Ca^2+, then further supplemented with either PBS or PBS with 15% (v/v) bovine serum. To these wells were then added increasing concentrations of purified native PF4. The resultant mixture was incubated for 20 minutes after which either 2 nM (PBS) or 10 nM THR (15% serum) was added and the generation of APC allowed to proceed for 45 minutes prior to quenching with addition of AT III and EDTA.

APC = experiment: Detection of known amounts of APC in 15% serum by chromogenic substrate (control); assay type: biochemical; conditions: known amounts of APC added to 15% serum, not shown
Experimental: In addition to stimulating APC generation by soluble forms of TM in buffers, PF4 also stimulates APC generation of cell-surface TM on porcine aortic endothelial cell (PAEC) monolayers in plasmatic conditions. In these experiments, 1 cm^2 monolayers of endothelial cells were overlaid with PBS buffer containing 500 nM PC and 1 mM Ca^2+, then further supplemented with either PBS or PBS with 15% (v/v) bovine serum. To these wells were then added increasing concentrations of purified native PF4. The resultant mixture was incubated for 20 minutes after which either 2 nM (PBS) or 10 nM THR (15% serum) was added and the generation of APC allowed to proceed for 45 minutes prior to quenching with addition of AT III and EDTA. Supernatants were then centrifuged to remove cellular debris and APC generation quantified using chromogenic substrate S-2366 as described above. In the absence of added serum, there is a 2 1/2-fold increase in APC generation with an optimum at 3.3 μg/ml of PF4, but decreasing APC generation with higher concentrations. In contrast, in the presence of 15% serum, the baseline APC generation is much lower despite the presence of higher concentrations of THR. There is a PF4 dose-dependent increase in APC generation with an optimum at 33 μg/ml PF4, at which point APC generation is 10-fold higher than baseline. […]

TM [4] = experiment: APC formation with exogenous TM in combination with PF4; conditions: pharmacological (exogenous) TM in combination with purified naturally occurring or recombinant PF4
Excerpt: The particularly preferred compositions of the present invention include those containing purified PF4, or a modification thereof, and a thrombomodulin preparation, such as purified soluble GAG+ thrombomodulin. Such compositions display particularly high levels of APC formation, and thus particularly effective levels of anticoagulation. For example, with the administration of a pharmacological form of TM, i.e., an exogenous form, in combination with purified naturally occurring or recombinant PF4, there is a 3-8 fold increase in the amount of APC formed, as compared to the administration of PF4 alone using endogenous forms of TM. This is particularly advantageous because TM and PF4, individually or together, have a higher therapeutic index than does heparin, which is currently used for anticoagulation therapy.

GAG+ TM [5] = biological target: T2, GAG+ TM; experiment: APC generation by recombinant GAG+ TM with thrombin and protein C (chromogenic S-2366); assay type: biochemical
[6] = system: purified, soluble rabbit TM; conditions: polyanions added to MBP-inhibited TM; cited from earlier work
[7] = 2 nM TM, 500 nM protein C, 1 mM Ca2+, 2 nM THR, 10 min, 37° C., over baseline

Substance: PF4: moderately cationic and hydrophobic major protein constituent of platelet α-granules, 7.8 kD; human PF4 purified from outdated platelets
- fold acceleration of APC generation by full-length rabbit TM (full-length rabbit TM): 4 fold
- fold acceleration of APC generation by GAG- TM (GAG- TM; [7]): 4 fold
- effect of PF4 on Ca2+ dependence of APC generation by GAG- variant (GAG- TM; several Ca2+ concentrations, FIG. 2): increases APC generation at all Ca^2+ concentrations but does not shift the overall shape of the curve
- fold acceleration of APC generation by GAG+ TM (GAG+ TM [1]; [7]): 25 fold
- acceleration of GAG+ TM by PF4 relative to full-length rabbit TM and GAG- TM (fold-over-baseline basis) (GAG+ TM [1]; fold-over-baseline comparison): more than six times as much
- fold acceleration of APC generation by GAG+ TM in plasma (GAG+ TM [1]; in the presence of 15% defibrinated plasma): 10 fold
- effect upon TM-independent activation of protein C by THR (THR): essentially no effect
- APC generation in the absence of added THR (TM [2]): neither PF4 alone nor PF4 together with TM generated APC
- PF4 concentration optimum for APC generation, PAEC, 15% serum ([3]; 15% (v/v) bovine serum, 10 nM THR): 33 µg/mL
- fold increase in APC generation over baseline, PAEC, 15% serum ([3]; 15% (v/v) bovine serum, 10 nM THR, at 33 μg/ml PF4): 10 fold
- PF4 concentration optimum for APC generation, PAEC, no serum ([3]; PBS, absence of added serum, 2 nM THR): 3.3 µg/mL
- effect on APC detection by chromogenic substrate (APC): did not diminish or augment APC detection
- fold increase in the amount of APC formed, exogenous TM plus PF4 versus PF4 alone using endogenous TM (TM [4]): 3-8 fold
- APC generation in the absence of Ca2+ (GAG+ TM [5]; 0 calcium, buffers with 1 mM EDTA, GAG+ and GAG- forms of TM): allows both the GAG+ and GAG- forms of TM to generate APC even in the absence of Ca^2+
- Ca2+ optimum of APC generation by GAG+ TM with PF4 added (GAG+ TM [5]; PF4 added, FIG. 2): 0.5 mM

- acceleratory effect upon APC generation by thrombomodulin (GAG+ TM) (GAG+ TM [1]): no such effect
Substance: chondroitin sulfate A

- acceleratory effect upon APC generation by thrombomodulin (GAG+ TM) (GAG+ TM [1]): no such effect
Substance: chondroitin sulfate E
- reversal of MBP inhibition of APC generation [6]: reversed

- acceleratory effect upon APC generation by thrombomodulin (GAG+ TM) (GAG+ TM [1]): no such effect
Substance: heparin
- reversal of MBP inhibition of APC generation [6]: reversed

Substance: poly-L-lysine
- fold acceleration of APC generation by full-length rabbit TM (full-length rabbit TM): 2.5 fold
- acceleratory effect upon APC generation by thrombomodulin (GAG+ TM) (GAG+ TM [1]): can be replicated

Substance: protamine sulfate
- fold acceleration of APC generation by full-length rabbit TM (full-length rabbit TM): 2.5 fold
- acceleratory effect upon APC generation by thrombomodulin (GAG+ TM) (GAG+ TM [1]): can be replicated

Substance: thrombospondin: anionic protein; major constituent of platelet α-granules
- acceleratory effect upon APC generation by thrombomodulin (GAG+ TM) (GAG+ TM [1]): no such effect
